One may read the IC50 as the concentration needed to halve the response being measured. Read a low IC50 as higher potency.

One assay has as its system Nalm-6 (B-lineage ALL). Description: MTT cytotoxicity assay, Nalm-6. The class given is cell-based. Particulars: Homo sapiens, 24-36 hours at 37° C., 0.1 to 250 μM. How it is done:
(§1) Cytotoxicity of various compounds against tumor cells was performed using the MTT (3-[4,5-[…]]-2,5-diphenyl tetrazolium bromide) assay (Boehringer Mannheim Corp., Indianapolis, Ind.). Unless otherwise specified, all cell lines were obtained from the American Type Culture Collection (ATCC). Briefly, exponentially growing cells were seeded into a 96-well plate at a density of 2.5×10^4 cells/well and incubated for 36 hours at 37° C. prior to drug exposure. On the day of treatment, culture medium was carefully aspirated from the wells and replaced with fresh medium containing the indicated compound at concentrations ranging from 0.1 to 250 μM. Triplicate wells were used for each treatment.
(§2) Human leukemic cell lines (NALM-6, MOLT-3) glioblastoma cells (U373) and human breast tumor cell lines (BT20 and MDA-MB-231) were obtained from the American Type Culture Collection and maintained as a continuous cell line in Dulbecco's modified Eagles's medium supplemented with 10% fetal bovine serum and antibiotics.
(§3) The cells were incubated with the various compounds for 24-36 hours at 37° C. in a humidified 5% CO2 atmosphere. To each well, 10 μl of MTT (0.5 mg/ml final concentration) was added and the plates were incubated at 37° C. for 4 hours to allow MTT to form formazan crystals by reacting with metabolically active cells. The formazan crystals were solubilized overnight at 37° C. in a solution containing 10% SDS in 0.01 M HCl. The absorbence of each well was measured in a microplate reader (Labsystems) at 540 nm and a reference wavelength of […]. To translate the OD540 values into the number of live cells in each well, the OD540 values were compared to those on standard OD540 --versus--cell number curves generated for each cell line. The percent survival was calculated using the formula: [formula]
(§4) The IC50 values were calculated by non-linear regression analysis and are shown below in Tables 1-6.
In general terms: Formazan colour is commonly taken as a measure of viable cells.

The subject of the next assay is U-373 (glioblastoma). The assay can be described thus: MTT cytotoxicity assay, U-373. Particulars: Homo sapiens, U373 MG, 24-36 hours at 37° C., 0.1 to 250 μM. The class given is cell-based. As to the method:
as §1, §2, §3, §4

Another assay has as its system PC-3 (prostate cancer). The assay can be described thus: MTT cytotoxicity assay, PC-3. In kind it is cell-based. Particulars: 24-36 hours at 37° C., 0.1 to 250 μM. How it is done: as §1, §3, §4
In the next assay the test system is Molt-3 (T-lineage ALL). The assay can be described thus: MTT cytotoxicity assay, Molt-3. In kind it is cell-based, human. The following applies: Homo sapiens, MOLT-3, MTT, 24-36 hours at 37° C., 0.1 to 250 μM. How it is done: as §1, §2, §3, §4
In another assay the test system is BT-20 (breast cancer). Description: MTT cytotoxicity assay, BT-20. The class given is cell-based. Particulars: Homo sapiens, 24-36 hours at 37° C., 0.1 to 250 μM. As to the method: as §1, §2, §3, §4

Residues, ends and D or L forms follow the SMILES beside them. *: point of attachment. Farnesyl = CC(C)=CCC/C(C)=C/CC/C(C)=C/C*; Boc = CC(C)(C)OC(=O)*; CH2Cl = ClC*

Consider `C=CCSC[C@H](NC(C)=O)C(=O)CCl` [HI-419, N-Ac-S-allyl-cysteine chloromethyl ketone], for which the IC50 with Nalm-6 (B-lineage ALL) is 4.3 µM; in the assay on U-373 (glioblastoma), 56.7 µM; in the assay on PC-3 (prostate cancer) it was over 100 µM; with Molt-3 (T-lineage ALL), 7.3 µM; in the assay on BT-20 (breast cancer), 55.7 µM.
For `CC(C)=CCC/C(C)=C/CC/C(C)=C/CSCC(=O)CCl` [HI-126, S-trans-trans-Farnesyl-mercaptomethyl chloromethyl ketone] the same measures were 84.3 µM, over 100 µM, over 100 µM, over 100 µM and over 100 µM.
For the molecule `CC(=O)N[C@@H](CSC/C=C(\C)CCC=C(C)C)C(=O)CCl` [HI-127, N-Ac-S-trans-geranyl-Cys chloromethyl ketone], the IC50 in the assay with Nalm-6 (B-lineage ALL), with U-373 (glioblastoma), with PC-3 (prostate cancer), in the assay on Molt-3 (T-lineage ALL) and with BT-20 (breast cancer) was over 100 µM in each case.
In the case of `CCCCCCCCCCCCSC[C@H](NC(C)=O)C(=O)N(C)OC` [HI-267, N-Ac-S-dodecyl-Cys-N(OCH3)-CH3], the IC50 is 50.1 µM in the assay on Nalm-6 (B-lineage ALL), over 100 µM in the assay on U-373 (glioblastoma), over 100 µM in the assay with PC-3 (prostate cancer) and over 100 µM in the assay on BT-20 (breast cancer).
Turning to `CCCCCCCCCCCCSC[C@H](NC(=O)C(F)(F)F)C(=O)CCl` [HI-490, N-Trifluoroacetyl-S-dodecyl-cysteine chloromethyl ketone], the IC50 in the assay with Nalm-6 (B-lineage ALL) was 32.6 µM; in the assay on U-373 (glioblastoma), over 100 µM; in the assay with PC-3 (prostate cancer) it was over 100 µM; in the assay with Molt-3 (T-lineage ALL), 41.3 µM; with BT-20 (breast cancer), over 100 µM.
On to `CC(C)=CCC/C(C)=C/CC/C(C)=C/CSC[C@H](NC(=O)OC(C)(C)C)C(=O)CCl` [HI-124, N-Boc-S-farnesyl-Cys chloromethyl ketone], for which the concentration for half-maximal inhibition (IC50) is 10.7 µM in the assay on Nalm-6 (B-lineage ALL); over 100 µM with U-373 (glioblastoma); over 100 µM in the assay with PC-3 (prostate cancer); 7.7 µM in the assay on Molt-3 (T-lineage ALL); over 100 µM with BT-20 (breast cancer).
In the case of `CC(C)=CCC/C(C)=C/CC/C(C)=C/CSCCC(=O)CCl` [HI-125, S-trans-trans-Farnesyl-2-mercaptoethyl chloromethyl ketone], the IC50 is 40.7 µM in the assay with Nalm-6 (B-lineage ALL); over 100 µM in the assay with U-373 (glioblastoma); over 100 µM with PC-3 (prostate cancer); 35.5 µM in the assay with Molt-3 (T-lineage ALL); over 100 µM with BT-20 (breast cancer).
`CC(=O)N[C@@H](CSCC=C(C)C)C(=O)CCl` [HI-128, N-Ac-S-(3-methyl-2-butenyl)-Cys chloromethyl ketone]: the IC50 was 12.6 µM with Nalm-6 (B-lineage ALL); over 100 µM in the assay with U-373 (glioblastoma); 47.8 µM with PC-3 (prostate cancer); 7.9 µM in the assay with Molt-3 (T-lineage ALL); 25.7 µM in the assay on BT-20 (breast cancer).
On the same counts, the results for `CC(C)=CCC/C(C)=C/CC/C(C)=C/CSC[C@H](NC(=O)CNC(=O)OC(C)(C)C)C(=O)CCl` [HI-130, N-Boc-Gly-S-trans-trans-farnesyl-Cys chloromethyl ketone] (Boc-Gly-Cys(Farnesyl)-CH2Cl) are 12.9 µM, 71.3 µM, over 100 µM, 17.5 µM and over 100 µM.
As to `CCCCCCCCCCCCSC[C@H](NC(=O)c1cccc(N(C)C)c1)C(=O)CCl` [HI-268, N-3-Dimethylaminobenzoyl-S-dodecyl-cysteine chloromethyl ketone], the IC50 in the assay with Nalm-6 (B-lineage ALL) was 96.1 µM; in the assay on U-373 (glioblastoma), over 100 µM; in the assay on PC-3 (prostate cancer), over 100 µM; in the assay on BT-20 (breast cancer) it was over 100 µM.
`CCCCCCCCCCCCSC[C@@H](C=O)NC(C)=O` [HI-274, N-Ac-S-dodecyl-Cys-H]: the IC50 was 12.6 µM with Nalm-6 (B-lineage ALL), over 100 µM in the assay on U-373 (glioblastoma), 13.1 µM in the assay on Molt-3 (T-lineage ALL) and 22.8 µM with BT-20 (breast cancer).
Consider `CCCCCCCCCCCCOC[C@H](NC(=O)OC(C)(C)C)C(=O)CCl` [HI-266, N-Boc-O-dodecyl serine chloromethyl ketone], for which the concentration for half-maximal inhibition (IC50) is 64.5 µM in the assay on Nalm-6 (B-lineage ALL), 37.1 µM with U-373 (glioblastoma) and 49.9 µM with BT-20 (breast cancer).

(Values after patent US6251882A, “Alkyl ketones as potent anti-cancer agents” (Parker Hughes Institute, priority 1999, dated 2001).)
